In brackets after ≈: the same amount, converted by molar mass. Activity calls are given as the source filed them. The rule behind the calls is not given here.
Columns and labels:
[1] = biological target: T1, Glucose-dependent insulinotropic receptor (Homo sapiens, UniProt Q8TDV5); test: Agonist activity at human GPR119 expressed in CHO cells assessed as cAMP level measured after 90 mins by HTRF based assay; format: functional, cell-based
T1 sequence (Q8TDV5 whole entry): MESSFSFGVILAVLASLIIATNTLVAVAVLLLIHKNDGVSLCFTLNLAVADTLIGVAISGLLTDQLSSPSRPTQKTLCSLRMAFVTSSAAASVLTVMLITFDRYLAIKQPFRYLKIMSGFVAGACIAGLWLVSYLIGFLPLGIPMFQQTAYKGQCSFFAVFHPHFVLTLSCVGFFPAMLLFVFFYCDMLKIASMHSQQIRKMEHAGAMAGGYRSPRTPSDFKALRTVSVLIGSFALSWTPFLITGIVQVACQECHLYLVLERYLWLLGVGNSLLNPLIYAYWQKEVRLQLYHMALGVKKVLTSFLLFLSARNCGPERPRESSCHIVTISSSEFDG

Mus musculus [2] = test: (§1) Anti-diabetic activity in overnight fasted male C57BL/6J mouse assessed as reduction in blood glucose level by measuring reduction in AUC […] at 20 mg/kg pre-administered with compound for 30 min followed by glucose bolus addition and measured upto 120 min by oral glucose tolerance test relative to control; format: functional; design: scale not given: the % may be the effect or the level left; conditions: time <= 150 min, 2.5 h
[3] = biological target: T1, Glucose-dependent insulinotropic receptor; test: Agonist activity at human GPR119; format: functional
[4] = biological target: T1, Glucose-dependent insulinotropic receptor; test: Agonist activity at human GPR119 expressed in CHO-K1 cells co-transfected with pcDNA3.1 assessed as increase in cAMP level; format: functional, cell-based
Mus musculus [5] = test: as §1, with “at 30” for “at 20”; format: functional; design: scale not given: the % may be the effect or the level left; conditions: time <= 150 min, 2.5 h
Mus musculus [6] = test: as §1, with “at 10” for “at 20”, “mg/kg once a day” for “mg/kg”; format: functional; design: scale not given: the % may be the effect or the level left; conditions: time <= 150 min, 2.5 h
Mus musculus [7] = test: Anti-diabetic activity in male FATZO mouse assessed as reduction in blood glucose level by measuring reduction in AUC […] at 30 mg/kg pre-administered with compound for 30 min followed by glucose bolus addition and measured upto 120 min by oral glucose tolerance test relative to control; format: functional; design: scale not given: the % may be the effect or the level left; conditions: time <= 150 min, 2.5 h
Cytochrome P450 2D6 = Cytochrome P450 2D6 (Homo sapiens, UniProt P10635); test: Inhibition of CYP2D6 in human liver microsomes using dextromethorphan as substrate incubated for 20 min in presence of NADPH by LC-MS/MS analysis; format: ADME, Microsome
Cytochrome P450 2D6, sequence (P10635 whole entry): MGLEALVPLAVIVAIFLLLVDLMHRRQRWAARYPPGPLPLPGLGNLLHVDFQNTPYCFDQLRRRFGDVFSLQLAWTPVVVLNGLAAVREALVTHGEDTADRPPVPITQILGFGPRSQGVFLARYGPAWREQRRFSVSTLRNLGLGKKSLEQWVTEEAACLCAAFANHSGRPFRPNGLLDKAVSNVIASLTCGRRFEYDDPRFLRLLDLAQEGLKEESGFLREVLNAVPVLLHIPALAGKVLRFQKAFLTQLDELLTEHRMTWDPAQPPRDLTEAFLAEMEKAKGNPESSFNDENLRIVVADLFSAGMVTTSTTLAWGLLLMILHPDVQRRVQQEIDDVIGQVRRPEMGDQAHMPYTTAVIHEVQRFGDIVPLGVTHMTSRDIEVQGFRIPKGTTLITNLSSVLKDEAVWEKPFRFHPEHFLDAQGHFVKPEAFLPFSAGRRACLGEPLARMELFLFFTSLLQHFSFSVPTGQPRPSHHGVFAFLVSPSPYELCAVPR

INS1 = test: Induction of insulin secretion in glucose treated INS1 cells at 0.1 to 1 uM measured after 1 hr by ELISA method; format: functional, cell-based; conditions: Rattus norvegicus, dose 0.1-1 µM
[8] = biological target: Voltage-gated inwardly rectifying potassium channel KCNH2 (Homo sapiens, UniProt Q12809); test: Inhibition of human ERG incubated for 150 min by fluorescence polarization based microplate reader analysis; format: toxicity
Voltage-gated inwardly rectifying potassium channel KCNH2, sequence (Q12809 whole entry): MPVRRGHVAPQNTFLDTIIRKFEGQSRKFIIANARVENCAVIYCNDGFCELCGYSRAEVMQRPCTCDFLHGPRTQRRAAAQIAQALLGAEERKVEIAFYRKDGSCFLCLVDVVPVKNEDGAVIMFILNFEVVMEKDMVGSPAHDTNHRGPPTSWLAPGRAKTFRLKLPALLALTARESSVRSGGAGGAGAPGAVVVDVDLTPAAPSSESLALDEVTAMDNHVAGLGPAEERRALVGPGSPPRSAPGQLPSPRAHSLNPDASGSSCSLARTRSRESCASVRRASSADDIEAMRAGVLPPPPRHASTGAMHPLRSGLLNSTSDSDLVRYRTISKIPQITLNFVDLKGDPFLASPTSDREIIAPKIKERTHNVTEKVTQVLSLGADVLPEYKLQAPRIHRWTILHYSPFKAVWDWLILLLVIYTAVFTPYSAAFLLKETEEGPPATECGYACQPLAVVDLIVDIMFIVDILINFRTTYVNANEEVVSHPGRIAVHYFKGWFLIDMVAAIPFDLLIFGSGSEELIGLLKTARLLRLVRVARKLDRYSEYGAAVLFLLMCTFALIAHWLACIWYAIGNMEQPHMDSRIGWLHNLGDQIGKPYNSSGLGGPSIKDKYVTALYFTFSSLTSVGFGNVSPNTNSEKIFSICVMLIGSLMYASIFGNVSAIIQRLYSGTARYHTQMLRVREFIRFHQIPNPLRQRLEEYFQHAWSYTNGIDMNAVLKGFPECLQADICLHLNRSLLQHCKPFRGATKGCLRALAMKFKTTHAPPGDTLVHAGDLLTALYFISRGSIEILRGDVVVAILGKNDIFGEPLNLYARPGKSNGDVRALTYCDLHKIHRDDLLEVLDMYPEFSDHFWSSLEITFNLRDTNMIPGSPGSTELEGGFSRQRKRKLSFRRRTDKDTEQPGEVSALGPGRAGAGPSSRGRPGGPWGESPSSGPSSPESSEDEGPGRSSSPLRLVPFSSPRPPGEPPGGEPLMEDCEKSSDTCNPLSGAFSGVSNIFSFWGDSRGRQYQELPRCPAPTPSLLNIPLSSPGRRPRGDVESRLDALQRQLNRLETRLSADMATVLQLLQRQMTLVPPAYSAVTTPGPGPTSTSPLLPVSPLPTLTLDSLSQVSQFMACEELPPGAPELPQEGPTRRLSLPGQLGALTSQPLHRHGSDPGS

[9] = Induction of GLP-1 secretion in human NCI-H716 cells assessed as fold change at 30 uM measured after 1 hr by ELISA method; format: functional
Rattus norvegicus [10] = test: Antidiabetic activity in high-fat diet induced obese female Sprague-Dawley rat model assessed as hypoglycemic effect at 3 to 30 mg/kg administered once daily for 5 weeks by oral glucose tolerance test; format: functional, organism-based; conditions: dose 3-30 mg/kg
[11] = Half-life in Sprague-Dawley rat at 30 mg/kg, po measured upto 48 hrs by LC-MS/MS analysis; format: ADME, organism-based; conditions: in vivo
[12] = Microsomal stability in rat liver microsome assessed as compound remaining measured upto 45 min in presence of NADPH by LC-MS analysis; format: ADME; conditions: liver microsomes, read-out: Stability
Rattus norvegicus [13] = test: Antidiabetic activity high-fat diet induced obese female Sprague-Dawley rat model assessed as reduction in fasting glucose levels at 3 to 30 mg/kg measured after 37 days by oral glucose tolerance test; format: functional, organism-based; conditions: dose 3-30 mg/kg, time 37.0 day
Mus musculus [14] = test: Anti-diabetic activity in male db/db mouse assessed as reduction in blood glucose level administered twice a day preincubated with compound for 30 min followed by glucose bolus addition and measured upto 120 min by oral glucose tolerance test; format: functional, organism-based; conditions: dose 30-30 mg/kg, time <= 150.0 min
[15] = Dissociation constant, pKa of compound; format: physicochemical
Cytochrome P450 3A4 = Cytochrome P450 3A4 (Homo sapiens, UniProt P08684); test: Inhibition of CYP3A4 in human liver microsomes using midazolam as substrate incubated for 5 min in presence of NADPH by LC-MS/MS analysis; format: ADME, Microsome
Cytochrome P450 3A4, sequence (P08684 whole entry): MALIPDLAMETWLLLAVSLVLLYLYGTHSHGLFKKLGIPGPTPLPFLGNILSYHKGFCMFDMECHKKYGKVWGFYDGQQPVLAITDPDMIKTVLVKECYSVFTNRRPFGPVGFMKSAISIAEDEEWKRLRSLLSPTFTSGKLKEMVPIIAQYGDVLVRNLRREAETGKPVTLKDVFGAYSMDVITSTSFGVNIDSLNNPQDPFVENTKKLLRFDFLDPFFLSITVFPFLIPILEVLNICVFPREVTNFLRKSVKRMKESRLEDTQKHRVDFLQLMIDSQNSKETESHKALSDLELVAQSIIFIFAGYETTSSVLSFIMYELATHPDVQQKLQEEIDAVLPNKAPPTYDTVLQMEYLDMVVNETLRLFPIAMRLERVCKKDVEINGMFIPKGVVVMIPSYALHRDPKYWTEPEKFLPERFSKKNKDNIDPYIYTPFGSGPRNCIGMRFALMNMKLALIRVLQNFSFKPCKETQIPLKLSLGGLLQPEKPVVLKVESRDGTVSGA

[16] = Induction of GLP-1 secretion in human NCI-H716 cells assessed as fold change at 10 uM measured after 1 hr by ELISA method; format: functional
[17] = Half-life in Cynomolgus monkey at 30 mg/kg, po measured upto 48 hrs by LC-MS/MS analysis; format: ADME, organism-based, Macaca fascicularis; conditions: in vivo
[18] = Microsomal stability in dog liver microsome assessed as compound remaining measured upto 45 min in presence of NADPH by LC-MS analysis; format: ADME, Canis lupus familiaris; conditions: liver microsomes, read-out: Stability
[19] = Half-life in Beagle dog at 10 mg/kg, po measured upto 48 hrs by LC-MS/MS analysis; format: ADME, organism-based, Canis lupus familiaris; conditions: in vivo
[20] = Lipophilicity, logP of compound; format: physicochemical; conditions: octanol/water
Rattus norvegicus [21] = test: Antidiabetic activity high-fat diet induced female Sprague-Dawley rat model assessed as reduction in body weight at 3 to 30 mg/kg measured after 28 days by oral glucose tolerance test; format: functional, organism-based; conditions: dose 3-30 mg/kg, time 28.0 day
[22] = Kinetic solubility of the compound in water; format: physicochemical; conditions: read-out: Kinetic_solubility
Cytochrome P450 2C19 = Cytochrome P450 2C19 (Homo sapiens, UniProt P33261); test: Inhibition of CYP2C19 in human liver microsomes using mephenytoin as substrate incubated for 45 min in presence of NADPH by LC-MS/MS analysis; format: ADME, Microsome
Cytochrome P450 2C19, sequence (P33261 whole entry): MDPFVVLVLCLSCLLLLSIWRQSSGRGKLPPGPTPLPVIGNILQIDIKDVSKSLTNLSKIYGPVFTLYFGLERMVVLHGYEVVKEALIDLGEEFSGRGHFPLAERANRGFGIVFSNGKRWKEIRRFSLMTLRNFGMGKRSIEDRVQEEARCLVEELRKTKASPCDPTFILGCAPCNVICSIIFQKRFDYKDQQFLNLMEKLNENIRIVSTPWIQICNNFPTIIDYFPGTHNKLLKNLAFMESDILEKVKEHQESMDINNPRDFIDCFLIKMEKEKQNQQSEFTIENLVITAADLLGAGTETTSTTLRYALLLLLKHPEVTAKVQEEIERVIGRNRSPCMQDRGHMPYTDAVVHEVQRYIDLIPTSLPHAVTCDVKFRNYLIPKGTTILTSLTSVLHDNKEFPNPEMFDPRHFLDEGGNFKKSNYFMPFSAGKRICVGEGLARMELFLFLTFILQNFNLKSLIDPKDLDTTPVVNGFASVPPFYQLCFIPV

[23] = Microsomal stability in human liver microsome assessed as compound remaining measured upto 45 min in presence of NADPH by LC-MS analysis; format: ADME; conditions: liver microsomes, read-out: Stability
Cytochrome P450 1A2 = biological target: T2, Cytochrome P450 1A2 (Homo sapiens, UniProt P05177); test: Inhibition of CYP1A2 in human liver microsomes using phenacetin as substrate incubated for 10 min in presence of NADPH by LC-MS/MS analysis; format: ADME, Microsome
T2 sequence (P05177 whole entry): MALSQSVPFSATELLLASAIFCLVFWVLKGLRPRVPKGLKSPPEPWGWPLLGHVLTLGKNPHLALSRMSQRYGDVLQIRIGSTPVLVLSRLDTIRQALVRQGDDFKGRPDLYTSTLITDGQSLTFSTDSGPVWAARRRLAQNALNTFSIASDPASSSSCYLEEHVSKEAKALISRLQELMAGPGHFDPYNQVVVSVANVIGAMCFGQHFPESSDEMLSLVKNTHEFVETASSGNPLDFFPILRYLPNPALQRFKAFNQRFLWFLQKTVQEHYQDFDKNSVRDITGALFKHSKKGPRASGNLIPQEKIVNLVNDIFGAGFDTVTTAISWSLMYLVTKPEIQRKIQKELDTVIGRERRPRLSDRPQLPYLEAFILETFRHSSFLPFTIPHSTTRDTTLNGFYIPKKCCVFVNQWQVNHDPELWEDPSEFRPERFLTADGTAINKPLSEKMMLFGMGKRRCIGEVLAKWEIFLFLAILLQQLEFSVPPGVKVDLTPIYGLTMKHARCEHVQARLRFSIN

[24] = Oral bioavailability in Cynomolgus monkey at 30 mg/kg measured upto 48 hrs by LC-MS/MS analysis; format: ADME, organism-based, Macaca fascicularis; conditions: in vivo
[25] = Oral bioavailability in Sprague-Dawley rat at 30 mg/kg measured upto 48 hrs by LC-MS/MS analysis; format: ADME, organism-based; conditions: in vivo
Cytochrome P450 2C9 = Cytochrome P450 2C9 (Homo sapiens, UniProt P11712); test: Inhibition of CYP2C9 in human liver microsomes using diclofenac as substrate incubated for 10 min in presence of NADPH by LC-MS/MS analysis; format: ADME, Microsome
Cytochrome P450 2C9, sequence (P11712 whole entry): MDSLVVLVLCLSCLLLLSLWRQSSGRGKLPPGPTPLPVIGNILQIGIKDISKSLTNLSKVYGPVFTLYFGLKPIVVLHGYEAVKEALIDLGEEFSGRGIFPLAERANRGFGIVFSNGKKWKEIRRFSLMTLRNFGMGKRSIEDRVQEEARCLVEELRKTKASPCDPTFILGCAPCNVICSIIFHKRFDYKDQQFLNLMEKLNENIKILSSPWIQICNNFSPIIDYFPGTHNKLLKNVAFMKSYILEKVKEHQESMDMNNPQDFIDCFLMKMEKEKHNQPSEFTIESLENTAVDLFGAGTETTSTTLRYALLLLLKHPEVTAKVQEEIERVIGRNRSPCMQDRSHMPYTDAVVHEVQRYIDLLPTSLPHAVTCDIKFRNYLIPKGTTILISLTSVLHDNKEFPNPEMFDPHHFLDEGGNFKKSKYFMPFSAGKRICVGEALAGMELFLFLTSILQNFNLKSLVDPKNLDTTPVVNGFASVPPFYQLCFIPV

SMILES: CCc1cnc(N2CCC(COc3ccc(C4=CCC(C(=O)N5CC[C@H](CO)C5)CC4)cc3)CC2)nc1 (stereo not given in full)
- EC50 [1]: 36 nM
- Activity (Mus musculus [2]): 13%

SMILES: CC(C)(C)OC(=O)N1CCC(COc2ccc(C3=CCC(C(=O)NCC(F)F)CC3)cc2)CC1 (stereo not given)
- EC50 [1]: 34 nM
- Activity (Mus musculus [2]): 10.6%

SMILES: CCOC(=O)C1CCC(c2ccc(OCC3CCN(C(=O)OC(C)(C)C)CC3)cc2)CC1 (stereo not given)
- EC50 [3]: 370 nM

SMILES: CCc1cnc(N2CCC(COc3ccc(C4=CCC(C(=O)N5CC(O)C5)CC4)cc3)CC2)nc1 (stereo not given)
- EC50 [1]: 70 nM
- Activity (Mus musculus [2]): 12.3%

SMILES: CC(C)(C)OC(=O)N1CCC(COc2ccc(C3=CCC(C(=O)NCCO)CC3)cc2)CC1 (stereo not given)
- EC50 [1]: 140 nM
- Activity (Mus musculus [2]): 6.7%

SMILES: CC[C@@H](Oc1ccc(C(=O)C2CC2)cc1)c1nc(-c2ccc(C(=O)N[C@H](C)CO)c(F)c2)no1 [FIRUGLIPEL]
- EC50 [4]: 51 nM

SMILES: CCc1cnc(N2CCC(COc3ccc(C4=CCC(C(=O)N5CC[C@@H](CO)C5)CC4)cc3)CC2)nc1 (stereo not given in full)
- EC50 [1]: 43 nM
- Activity (Mus musculus [2]): 7.6%

SMILES: N[C@@H](CC(=O)N1CCn2c(nnc2C(F)(F)F)C1)Cc1cc(F)c(F)cc1F [SITAGLIPTIN]
- Activity (Mus musculus [5]): 22%
- Activity (Mus musculus [6]): 20.5%
- Activity (Mus musculus [7]): 17.5%

SMILES: CC(C)c1noc(N2CCC(COc3ccc(C4=CCC(C(=O)N5CCCC5)CC4)cc3)CC2)n1 (stereo not given)
- EC50 [1]: 55 nM
- Activity (Mus musculus [2]): 5.9%

SMILES: CCc1cnc(N2CCC(CCCOc3cc(F)c(-c4noc(C(C)C)n4)c(F)c3)CC2)nc1
- EC50 [3]: 14 nM

SMILES: CC(C)(C)OC(=O)N1CCC(COc2ccc(C3=CCC(C(=O)NC4CC4)CC3)cc2)CC1 (stereo not given)
- EC50 [1]: 40 nM

SMILES: CCOC(=O)C1CC=C(c2ccc(OCC3CCN(C(=O)OC(C)(C)C)CC3)cc2)CC1 (stereo not given)
- EC50 [1]: 53 nM

SMILES: CCc1cnc(N2CCC(COc3ccc(C4=CC[C@H](C(=O)N5CCC[C@@H]5CO)CC4)cc3)CC2)nc1
- IC50 (Cytochrome P450 2D6): > 10000 nM
- Activity (INS1): Active
- IC50 [8]: > 100000 nM
- fold change (FC) [9]: 1.8
- Activity (Rattus norvegicus [10]): Active; Strong Glucose Tolerant Ability
- half-life [11]: 5.4 h
- remaining at 0.75 h [12]: 48.3%
- EC50 [1]: 3.8 nM
- Activity (Rattus norvegicus [13]): Active
- Activity (Mus musculus [14]): Dose-dependent-effect; Superior Compared To Sitagliptin
- pKa [15]: 2.49
- IC50 (Cytochrome P450 3A4): > 10000 nM
- fold change (FC) [16]: 1.7
- half-life [17]: 11.7 h
- remaining at 0.75 h [18]: 62.4%
- half-life [19]: 17.2 h
- logP [20]: 3.45
- Activity (Rattus norvegicus [21]): Active; Significant Reduction In Body Weight
- solubility kinetic [22]: 176 µM (≈ 88.8 µg/mL)
- IC50 (Cytochrome P450 2C19): > 10000 nM
- remaining at 0.75 h [23]: 53.8%
- Activity (Mus musculus [7]): 22.9%
- IC50 (Cytochrome P450 1A2): > 10000 nM
- bioavailability [24]: 31.6%
- bioavailability [25]: 28.3%
- IC50 (Cytochrome P450 2C9): > 10000 nM

SMILES: CC(C)c1noc(N2CCC(COc3ccc(C4=CCC(C(=O)N5CCC5)CC4)cc3)CC2)n1 (stereo not given)
- EC50 [1]: 41 nM
- Activity (Mus musculus [2]): 4.2%

SMILES: CCc1cnc(N2CCC(COc3ccc(C4=CCC(C(=O)N5CC[C@H](O)C5)CC4)cc3)CC2)nc1 (stereo not given in full)
- EC50 [1]: 26 nM
- Activity (Mus musculus [2]): 7.2%
